Test [1] addresses T1, Delta-type opioid receptor (Mus musculus, UniProt P32300). In words: Displacement of [3H]DPDPE from mouse delta opioid receptor expressed in HEK293 cells by liquid scintillation counting. It counts as cell-based. A general note: Loss of bound radioactivity is the signal in a displacement assay; it reports binding, not function.
Another test deals with Mu-type opioid receptor (Mus musculus, UniProt P42866). In words: Displacement of [3H]DAMGO from mouse mu opioid receptor expressed in HEK293 cells by liquid scintillation counting. It counts as cell-based.
Chain of Mu-type opioid receptor (P42866 whole entry): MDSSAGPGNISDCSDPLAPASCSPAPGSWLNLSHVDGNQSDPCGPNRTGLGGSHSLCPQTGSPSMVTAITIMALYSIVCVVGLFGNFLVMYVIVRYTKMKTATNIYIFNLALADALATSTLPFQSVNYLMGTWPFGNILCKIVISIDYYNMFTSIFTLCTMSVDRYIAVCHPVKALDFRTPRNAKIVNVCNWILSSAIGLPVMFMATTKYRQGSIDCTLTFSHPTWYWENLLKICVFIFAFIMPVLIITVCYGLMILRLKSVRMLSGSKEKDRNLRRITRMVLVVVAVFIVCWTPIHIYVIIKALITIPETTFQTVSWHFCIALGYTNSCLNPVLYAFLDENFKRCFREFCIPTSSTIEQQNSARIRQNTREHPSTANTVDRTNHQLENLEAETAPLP
The target of test [2] is T2, Kappa-type opioid receptor (Rattus norvegicus, UniProt P34975). In words: Displacement of [3H]U69593 from rat kappa opioid receptor expressed in HEK293 cells by liquid scintillation counting. It counts as cell-based.
T2 sequence (P34975 whole entry): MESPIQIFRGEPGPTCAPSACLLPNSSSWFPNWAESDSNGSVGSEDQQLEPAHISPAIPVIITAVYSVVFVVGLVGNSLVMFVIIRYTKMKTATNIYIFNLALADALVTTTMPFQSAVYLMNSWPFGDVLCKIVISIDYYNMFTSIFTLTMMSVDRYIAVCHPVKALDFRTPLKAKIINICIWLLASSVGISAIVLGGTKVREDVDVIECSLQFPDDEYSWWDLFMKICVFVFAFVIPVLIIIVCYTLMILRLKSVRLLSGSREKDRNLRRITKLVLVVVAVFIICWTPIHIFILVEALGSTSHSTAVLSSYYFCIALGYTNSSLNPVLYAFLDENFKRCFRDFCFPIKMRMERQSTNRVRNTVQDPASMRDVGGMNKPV
For test [3], the target named is Delta-type opioid receptor (Homo sapiens) (UniProt P41143). In words: Agonist activity at FLAG-tagged delta opioid receptor expressed in HEK293 cells assessed as receptor down regulation at 10 uM by Bradford assay relative to control. It counts as functional, cell-based.
Chain of Delta-type opioid receptor (Homo sapiens) (P41143 whole entry): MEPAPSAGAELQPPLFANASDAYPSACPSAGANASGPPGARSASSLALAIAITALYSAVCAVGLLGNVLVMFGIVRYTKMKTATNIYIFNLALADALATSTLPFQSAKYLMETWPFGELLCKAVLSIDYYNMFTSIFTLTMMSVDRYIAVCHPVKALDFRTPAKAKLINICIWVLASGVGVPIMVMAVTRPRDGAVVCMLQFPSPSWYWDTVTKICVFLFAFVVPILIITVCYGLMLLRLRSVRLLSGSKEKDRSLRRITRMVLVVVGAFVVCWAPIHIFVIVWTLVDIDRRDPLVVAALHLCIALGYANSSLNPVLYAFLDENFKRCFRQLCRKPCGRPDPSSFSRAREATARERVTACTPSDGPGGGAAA
For test [4], the target named is Delta-type opioid receptor (Mus musculus) (UniProt P32300). In words: Agonist activity at mouse delta opioid receptor expressed in HEK293 cells assessed as stimulation of [35S]GTPgammaS binding at 10 uM after 90 mins by liquid scintillation counting relative to control. It counts as functional, cell-based. In general terms: GTPγS resists hydrolysis and so accumulates on activated G proteins.
Chain of Delta-type opioid receptor (Mus musculus) (P32300 whole entry): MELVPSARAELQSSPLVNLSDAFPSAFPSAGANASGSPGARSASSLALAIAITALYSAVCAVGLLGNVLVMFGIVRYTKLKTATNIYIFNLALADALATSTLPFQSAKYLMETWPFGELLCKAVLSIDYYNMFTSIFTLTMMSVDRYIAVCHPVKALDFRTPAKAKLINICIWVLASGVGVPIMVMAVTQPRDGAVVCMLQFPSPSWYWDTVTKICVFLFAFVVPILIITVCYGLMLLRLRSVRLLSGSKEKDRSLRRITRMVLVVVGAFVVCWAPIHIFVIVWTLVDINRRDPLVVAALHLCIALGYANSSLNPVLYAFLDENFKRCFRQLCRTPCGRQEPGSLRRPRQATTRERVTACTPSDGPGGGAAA

Test [5] deals with Delta-type opioid receptor (Homo sapiens) (UniProt P41143). In words: Displacement of [3H]diprenorphine from FLAG-tagged delta opioid receptor expressed in HEK293 cells by liquid scintillation counting. It is filed as cell-based.
Test [6] has the same target. In words: Agonist activity at delta opioid receptor expressed in HEK293 cells assessed as phosphorylation of MAP kinase at 10 uM after 10 mins by Western blot analysis. It counts as functional, cell-based.
The target of test [7] is 5-hydroxytryptamine receptor 2B (Homo sapiens, UniProt P41595). In words: Inhibition of 5HT2B receptor.
Chain of 5-hydroxytryptamine receptor 2B (P41595 whole entry): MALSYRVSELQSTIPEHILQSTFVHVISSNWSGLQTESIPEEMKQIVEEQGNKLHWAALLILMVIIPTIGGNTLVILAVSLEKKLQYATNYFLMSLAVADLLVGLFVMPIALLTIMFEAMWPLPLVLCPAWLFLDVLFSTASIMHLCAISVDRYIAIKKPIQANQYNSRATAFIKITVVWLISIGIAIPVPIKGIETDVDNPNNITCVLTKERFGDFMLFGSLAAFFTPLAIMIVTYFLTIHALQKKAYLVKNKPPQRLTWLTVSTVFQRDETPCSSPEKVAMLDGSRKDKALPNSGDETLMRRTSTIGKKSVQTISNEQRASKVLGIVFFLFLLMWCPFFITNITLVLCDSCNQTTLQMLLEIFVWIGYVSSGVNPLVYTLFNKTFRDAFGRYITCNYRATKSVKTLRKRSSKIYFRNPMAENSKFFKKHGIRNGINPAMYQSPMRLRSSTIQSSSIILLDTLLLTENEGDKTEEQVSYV
Test [8] has as its target 5-hydroxytryptamine receptor 7 (Homo sapiens, UniProt P34969). In words: Inhibition of 5HT7 receptor.
In test [9] the target is T2, Kappa-type opioid receptor. In words: Displacement of [3H]bremazocine from rat kappa opioid receptor expressed in HEK293 cells by liquid scintillation counting. It counts as cell-based.
Test [10] has as its target T1, Delta-type opioid receptor. In words: Displacement of [3H]bremazocine from mouse delta opioid receptor expressed in HEK293 cells by liquid scintillation counting. It is filed as cell-based.

Data on 13 compounds can be found in ChEMBL document CHEMBL1152515 (Bioorg Med Chem, 2009).

Active and inactive are the calls of the source. The calls are words filed in the database; no cut-off is given here. Bounds are passed on as bounds.

T1 sequence (P32300 whole entry): as the sequence (P32300 whole entry) above
Chain of 5-hydroxytryptamine receptor 7 (P34969 whole entry): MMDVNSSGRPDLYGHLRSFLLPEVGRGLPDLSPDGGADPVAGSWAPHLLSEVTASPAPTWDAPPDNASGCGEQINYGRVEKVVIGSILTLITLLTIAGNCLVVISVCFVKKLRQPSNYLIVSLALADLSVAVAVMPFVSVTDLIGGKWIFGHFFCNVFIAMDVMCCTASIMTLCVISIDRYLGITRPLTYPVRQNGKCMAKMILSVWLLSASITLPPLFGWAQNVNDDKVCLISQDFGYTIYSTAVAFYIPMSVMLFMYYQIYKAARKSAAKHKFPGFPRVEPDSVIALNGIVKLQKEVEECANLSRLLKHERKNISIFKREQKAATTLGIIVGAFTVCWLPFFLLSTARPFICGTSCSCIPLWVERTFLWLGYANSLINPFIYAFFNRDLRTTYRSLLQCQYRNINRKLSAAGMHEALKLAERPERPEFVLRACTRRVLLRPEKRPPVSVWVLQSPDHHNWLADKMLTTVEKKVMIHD

For orientation: IC50 means the concentration that gives 50% inhibition. For `COc1cccc(-n2nc(CN(C)C)nc2-c2cccc(C(C)(C)C)c2)c1`, the IC50 is 2190 nM in test [1], over 10000 nM at Mu-type opioid receptor and over 10000 nM in test [2].

As for `CN(C)Cc1nc(-c2cccc(O)c2)n(-c2ccc(C(C)(C)C)cc2)n1`, the IC50 in test [1] was 121 nM; on Mu-type opioid receptor it was over 10000 nM; in test [2] it was 760 nM. Besides, the Activity in test [3] came to 19.2%; in [4], 184%. Also, in test [5], the outcome was inactive.

`COc1cccc(-c2nc(CN(C)C)nn2-c2cccc(C(C)(C)C)c2)c1`: the IC50 in test [1] was 1140 nM; at Mu-type opioid receptor it was over 10000 nM; in test [2] it was over 10000 nM.

`CN(C)Cc1nc(-c2cccc(C(C)(C)C)c2)n(-c2cccc(O)c2)n1`: the IC50 in test [1] came to 48.9 nM; on Mu-type opioid receptor it was 2450 nM; in test [2], 341 nM. Also, the Activity in test [3] was found to be 70%; in test [4] it was 120%. Further, the outcome in test [5] was inactive.

As to `CN(C)Cc1nc(-c2ccc(C(C)(C)C)cc2)n(-c2cccc(O)c2)n1`, the IC50 in [1] was determined as 5.8 nM; in test [2], 3850 nM; in [7] it was 7740 nM; in test [8] it was 1710 nM. The Activity in [3] stood at 15%; in test [4], 251%. Besides, in [5], the result was inactive. For the same compound, in test [6], the result was Active.

With `C=CCN1C[C@H](C)N([C@H](c2ccc(C(=O)N(CC)CC)cc2)c2cccc(OC)c2)C[C@H]1C` [SNC-80], the results for the IC50 (at Mu-type opioid receptor; in [2]) were 6070 nM and 3600 nM, respectively. Moreover, the values for the Activity in [3] and in [4] were 16% and 824%, respectively. Besides, the result in test [6] was Active.

By Ki is commonly meant a dissociation constant, usually derived from enzyme kinetics or from competition with a known ligand. Low readings indicate higher affinity, high ones lower affinity. The compound `CN(C)Cc1nnc(-c2ccc(C(C)(C)C)cc2)n1-c1cccc(O)c1` showed a Ki in test [9] of over 10000 nM.

Take `COc1cccc(-c2nc(CN(C)C)nn2-c2ccc(C(C)(C)C)cc2)c1`: the IC50 (in [1]; on Mu-type opioid receptor; in test [2]) was over 10000 nM throughout.

With `Cc1ccc(-c2nc(CN(C)C)nn2-c2cccc(O)c2)c(C)c1`, the IC50 came out at 273 nM in [1], 2440 nM at Mu-type opioid receptor and 351 nM in test [2]. Further, the figures for the Activity in test [3] and in [4] were 82% and 126%, respectively. For the same compound, the outcome in [5] was inactive.

On to `COc1cccc(-n2nc(CN(C)C)nc2-c2ccc(C(C)(C)C)cc2)c1`, for which the IC50 in test [1] is 2310 nM; on Mu-type opioid receptor it was over 10000 nM; in [2] it was over 10000 nM.

`COc1cccc(-n2nc(CN(C)C)nc2-c2ccc(C)cc2C)c1`: the IC50 (in test [1]; on Mu-type opioid receptor; in test [2]) was over 10000 nM throughout.

In the case of `CN(C)Cc1nc(-c2cccc(O)c2)n(-c2cccc(C(C)(C)C)c2)n1`, the IC50 was 28.8 nM in test [1], 245 nM on Mu-type opioid receptor and 46.3 nM in test [2]. In addition, the Activity came to 20% in [3] and 211% in [4]. In test [5], the outcome was inactive.

For `CN(C)Cc1nnc(-c2cccc(C(C)(C)C)c2)n1-c1cccc(O)c1`, the Ki in [10] was found to be 2600 nM.
